Laboratory results: patent publication US9145415B2, “Nitrogen-containing heterocyclic compound or salt thereof” (FUJIFILM Corporation, priority 2012, dated 2015)
Read-outs that look alike come from different tables or passages of the source.

Tests used:
[1] = target: T1, human FLT3 protein (FLT3 (WT)) (Homo sapiens, UniProt P36888); assay: FLT3 inhibition test (FLT3 enzyme inhibition, time-resolved fluorescence of substrate peptide phosphorylation); assay type: biochemical; conditions: read-out: FLT3 (WT) enzyme inhibition activity
T1 construct: human FLT3 protein (intracellular region, 564 to 993 aa); GST; purchased Carna Biosciences; host or cells: baculovirus expression system
T1 sequence (P36888 564-993): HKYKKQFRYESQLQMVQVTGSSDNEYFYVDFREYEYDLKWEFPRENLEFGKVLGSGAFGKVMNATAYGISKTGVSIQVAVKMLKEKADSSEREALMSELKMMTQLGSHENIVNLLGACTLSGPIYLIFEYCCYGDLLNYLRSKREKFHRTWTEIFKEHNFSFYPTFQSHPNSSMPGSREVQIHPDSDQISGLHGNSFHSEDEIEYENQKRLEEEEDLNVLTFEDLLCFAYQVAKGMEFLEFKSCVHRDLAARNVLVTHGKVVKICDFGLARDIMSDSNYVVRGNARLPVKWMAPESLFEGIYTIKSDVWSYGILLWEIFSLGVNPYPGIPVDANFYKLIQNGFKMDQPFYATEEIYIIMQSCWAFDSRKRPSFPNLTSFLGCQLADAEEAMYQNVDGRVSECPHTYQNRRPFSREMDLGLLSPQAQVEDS
Summary of the method: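 Substrate peptide phosphorylation detected by time-resolved fluorescence after a 30 min kinase reaction at 25° C with 50 μM ATP (final). Beforehand, compound and FLT3 (WT, 1.2 μg) stood 15 min at 25° C in HEPES buffer pH 7.5 containing MgCl2, NaCl, BSA and DTT.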

MV4-11 cells = assay: Leukemia cell proliferation inhibition test (ATPlite), MV4-11; assay type: cell-based; conditions: Homo sapiens, read-out: MV4-11 cell proliferation inhibition effect
Summary of the method: (§1)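 Molm-13 or MV4-11 cells at 10,000 cells/well in RPMI with 10% FBS and pen/strep were exposed to serially diluted compound for 72 h at 37 °C, 5% CO2. Total cellular ATP was read by luciferase luminescence. GI50 was taken relative to 0.1% DMSO control, from duplicates by sigmoid non-linear regression.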

Molm-13 cells = assay: Leukemia cell proliferation inhibition test (ATPlite), Molm-13; assay type: cell-based; conditions: Homo sapiens, read-out: MOLM13 cell proliferation inhibition effect
Summary of the method: as §1

[2] = GST-fused human FLT3 (564 to 993 aa), ATP 50 μM
[3] = MV4-11, 72 h, MV4-11, 72 hours culture, ATPlite, GI50 per method
[4] = MOLM-13, 72 h, Molm-13, 72 hours culture, ATPlite, GI50 per method

Compound	IC50 [1, 2] [nM]	IC50 (MV4-11 cells; [3]) [nM]	IC50 (Molm-13 cells; [4]) [nM]	IC50 ([1]; FLT3 (WT)) [nM]	IC50 (MV4-11 cells; MV4-11, MV4-11 cell) [nM]	IC50 (Molm-13 cells; MOLM-13, MOLM13 cell) [nM]
CNc1nc(Nc2cccc(C#N)c2)ncc1C#C[C@@H]1CCC[C@H](NC(=O)[C@H](C)N(C)C(=O)/C=C/CN(C)C)C1 [Compound 21-1, (E)-N—((S)-1-(((1S,3R)-3-((2-((3-cyanophenyl)amino)-4-(methylamino)pyrimidin-5-yl)ethynyl)cyclohexyl)amino)-1-oxopropan-2-yl)-4-(dimethylamino)-N-methyl-2-butenamide]	< 10	< 10	< 10			
C[C@@H](C(=O)NCCCC#Cc1cnc(Nc2ccc(C#N)cc2)nc1NC1CC1)N(C)C(=O)/C=C/CN(C)C [Compound 10-25]	< 10	< 10	< 10			
COCCN(C)c1nc(Nc2ccc(C#N)cc2)ncc1C#CCCCNC(=O)[C@H](C)N(C)C(=O)/C=C/CN(C)C [Compound 10-51]	< 10	< 10	< 10			
C[C@@H](C(=O)N[C@H]1C[C@@H](C#Cc2cnc(Nc3ccc(C#N)cc3)nc2NCCCF)C1)N(C)C(=O)/C=C/CN(C)C [Compound 15-14, (E)-N—((S)-1-(((1S,3R)-3-((2-((4-Cyanophenyl)amino)-4-((3-fluoropropyl)amino)pyrimidin-5-yl)ethynyl)cyclobutyl)amino)-1-oxopropan-2-yl)-4-(dimethylamino)-N-methyl-2-butenamide]	< 10	< 10	< 10			
CCCNc1nc(Nc2cncc(Cl)c2)ncc1C#CCCCNC(=O)[C@H](C)N(C)C(=O)/C=C/CN(C)C [Compound 22-9]				< 10	10 to 100	10 to 100
CN(C)C/C=C/C(=O)N1CCC[C@H]1C(=O)NCCCC#Cc1cnc(Nc2ccc3[nH]ncc3c2)nc1NC1CC1 [Compound 10-74]	< 10	< 10	< 10			
COc1ccc(Nc2ncc(C#C[C@H]3C[C@@H](NC(=O)[C@H](C)N(C)C(=O)/C=C/CN(C)C)C3)c(NC3CC3)n2)cc1F (relative stereo) [Compound 15-10, (E)-N—((S)-1-(((1S*,3R*)-3-((4-(Cyclopropylamino)-2-((3-fluoro-4-methoxyphenyl)amino)pyrimidin-5-yl)ethynyl)cyclobutyl)amino)-1-oxopropan-2-yl)-4-(dimethylamino)-N-methyl-2-butenamide]	< 10	< 10	< 10			
COc1nc(Nc2cccc(F)c2)ncc1C#C[C@@H]1CCC[C@H](NC(=O)[C@H](C)N(C)C(=O)/C=C/CN(C)C)C1 [Compound 15-4]	< 10	< 10	< 10			

Continued, values first:

IC50 [1, 2] [nM]	IC50 (MV4-11 cells; [3]) [nM]	IC50 (Molm-13 cells; [4]) [nM]	IC50 ([1]; FLT3 (WT)) [nM]	IC50 (MV4-11 cells; MV4-11, MV4-11 cell) [nM]	IC50 (Molm-13 cells; MOLM-13, MOLM13 cell) [nM]	Compound
< 10	< 10	10 to 100				CCCNc1nc(NCCc2ccncc2)ncc1C(=O)Nc1ccc(OC)c(NC(=O)CNC(=O)/C=C/CN(C)C)c1 [Compound 1-9]
			< 10	10 to 100	10 to 100	CCCNc1nc(Nc2ccc(-n3cccn3)cc2)ncc1C#CCCCNC(=O)[C@H](C)N(C)C(=O)/C=C/CN(C)C [Compound 22-15]
< 10	10 to 100	10 to 100				CCCNc1nc(NCCc2ccncc2)ncc1C(=O)Nc1cccc(NC(=O)CNC(=O)/C=C/CN2CCN(C)CC2)c1 [Compound 2-14]
			10 to 100	100 to 1000	100 to 1000	CCCNc1nc(Nc2cccc3cn[nH]c23)ncc1C#CCCCNC(=O)[C@H](C)N(C)C(=O)/C=C/CN(C)C [Compound 21-56]
< 10	< 10	< 10				CCCNc1nc(Nc2ccc(C#N)cc2)ncc1C#CCCCNC(=O)CN(CCC)C(=O)/C=C/CN(C)C [Compound 7-64]
< 10	10 to 100	< 10				C=CC(=O)N(C)CC(=O)NCCCNC(=O)c1cnc(NCCc2ccncc2)nc1NCCC [Compound 2-23]
< 10	100 to 1000	100 to 1000				CCCNc1nc(Nc2ccc(C#N)cc2)ncc1C#CCNC(=O)CCCNC(=O)/C=C/CN(C)C [Compound 7-91]
			< 10	< 10	< 10	CCCNc1nc(Nc2ccc3cn[nH]c3c2)ncc1C#CCCCNC(=O)[C@H](C)N(C)C(=O)/C=C/CN(C)C [Compound 21-53, (S,E)-N-(1-((5-(2-((1H-indazol-6-yl)amino)-4-(propylamino)pyrimidin-5-yl)-4-pentyn-1-yl)amino)-1-oxopropan-2-yl)-4-(dimethylamino)-N-methyl-2-butenamide]
10 to 100	10 to 100	10 to 100				CCCNc1nc(Nc2ccc(Cn3cncn3)cc2)ncc1C#CCCCNC(=O)CN(C)C(=O)/C=C/CN(C)C [Compound 12-11]
